# Reference: patent US20160201132A1, “GENE EXPRESSION BIOMARKERS OF LAQUINIMOD RESPONSIVENESS” (Teva Pharmaceutical Industries Ltd., priority 2013, published 2016)
# Tested on: TGFB1
# Experiment: Western blot verification of TGFB1 (TGFb) protein in PBMC of LAQ-treated RRMS patients
# Assay type: in vivo, human
# Procedure: FIG. 5: Expression of TGFB1 in PBMCs of RRMS patients following treatment with LAQ. Protein samples ([…]) were prepared from phenol/ethanol fractions of PBMCs derived from patients after 6 month of LAQ treatment (+) and compared to PBMCs samples of the same patients before treatment (−) (FIGS. 5A and 5C). From each sample 30 ug was separated on 10% SDS-PAGE. Blots were incubated with Rabbit a-TGFb1 (1:250) and mouse Tubulin (1:500). The signal intensities of a protein band and its surrounding background were scanned for each protein and quantified by using Quantity One 4.6.9 software (Bio-Rad Laboratories, Hercules, Calif.). […] The signal intensity of a protein bands were quantified by Quantity One 4.6.9 software. The resultant background-subtracted values of protein expression were normalized to those of Tubulin and then calculated as the relative protein levels for each patient before or after LAQ treatment. The blot images in A, B and C are representative of two out of five analyzed patients showing down regulation of TGFb, ITGB1 and CXCR1, respectively as also quantified by densitometry of bands analyzed from five patients. […] Supernatant was collected and protein concentration was determined using a Bradford assay (Pierce, Rockford, Ill., USA) according the manufacturer's guidelines. […]
smiles,measurement,setting,value
"CCN(C(=O)c1c(O)c2c(Cl)cccc2n(C)c1=O)c1ccccc1 [LAQ, 5-chloro-N-ethyl-4-hydroxy-1-methyl-2-oxo-N-phenyl-1,2-dihydroquinoline-3-carboxamide]",down-regulation of TGFB1 protein level (band intensities normalized against Tubulin),"four out of five patients, 6 months of LAQ treatment vs before treatment",20-50%
same,TGFb protein suppressed by (quantification of bands intensities),"six months of LAQ treatment vs baseline, n=5",69.0%
